Assay type in all cases: physicochemical
Data set [1] can be described thus: Indirect assay of diffuser blocks (GC/FID, pheromone remaining in the block). To be noted: despecified pheromone. How it is done: Analyses were carried out using the gas chromatography (GC) technique with a flame ionization detector (FID), commonly known as GC/FID. The instrument used was the Shimadzu GC2025.® • Injection: Quantity injected: 1 μL, split 50:1, temperature: 230° C. • Separation: DB-WAX column (Agilent), length: 20 m, diameter: 180 μm, film thickness: […] • Carrier gas: Helium (He) • Analysis time: 11.50 min (not including time to return to equilibrium between each analysis) injection). • Detection: FID, temperature: 250° C., flow rates: H2: 40 mL/min, Air: 400 mL/min, Nitrogen (make-up): 30 mL/min. To obtain a representative sample, “cores” were drilled at various positions in the block and then collected. 2.5 g of gel were weighed into a 50 mL volumetric flask and the volume made up to the beginning of the neck of the flask with acetone. The flask was then placed in an ultrasonic bath for one hour until the block was dissolved (a white precipitate was obtained), then acetone was added to the mark. An aliquot of this solution was placed in a syringe fitted with a syringe filter and filtered to obtain a translucent solution. The resulting solution was transferred to a 1.5 mL GC vial for analysis. The assays were carried out using a calibration range.

Data set [2] can be described thus: Direct diffusion of diffuser blocks (SPME GC/MS). The conditions noted are these: despecified pheromone 2%, 4 weeks. On the procedure:
Analyses were carried out using gas chromatography (GC) coupled to a mass spectrometer (MS) detector, a technique commonly referred to as GCMS. The molecules of interest were extracted using the Solid Phase Micro-Extraction (SPME) technique. The instrument used was the following: QP2010SE® from Shimadzu (See FIG. 4).
AOC 6000® automatic feeder • Extraction/SPME fiber: polyacrylate/Fused silica (85 μm), 23 Ga. • Adsorption time: 2 hours (exposure time of fiber above block) (See FIG. 4) • Desorption time: 30 minutes (fiber exposure time in injector) • Fiber-block distance: 2 cm • Injection: split/splitless injector • Temperature: 250° C., split 50 mode. • Separation: ZB-FFAP® column (Phénomenex), length: 30 m, diameter: 250 μm, film thickness: […]
• Carrier gas: Helium (He) • Analysis time: 18 min (not including time to return to equilibrium between each analysis injection • Detection: mass spectrometer with electron impact source/analyzer: quadrupole. • Source temperature: 200° C. • Interface temperature: 250° C. • Scan m/z 50 to m/z 500 • SIM with ions 55, 66 and 74.
Analyses were carried out in triplicate to verify reproducibility of results.
With the SPME method, results are evaluated by measuring the chromatographic peak area. The data have been plotted on diffusion curve (see FIGS. 5 and 6).

The nature of data set [3]: F3P PCDS direct diffusion (SPME GC/MS). To be noted: 40 mL, 6 capillaries. On the procedure:
For this study, three diffusers each containing 40 mL of product and 6 capillaries were prepared and diffused. Every Monday, Wednesday and Friday, pheromone diffusion in the air was monitored by GC/MS and SPME (Solid Phase Micro Extraction) until no liquid remained.
Experimentally, the device studied was placed in a closed space (in our case an upturned aquarium) containing the SPME fiber. The set-up si the same as the set-up shown in Section D/above and in FIG. 24. The SPME fiber was left for 2 hours to give the molecules time to absorb onto the fiber, then the fiber was injected into the GC/MS instrument for analysis. Pheromone diffusion over time was then studied.
Same elements as in Section E/V. C. are reproduced in this section.

The nature of data set [4]: DAP PCDS direct diffusion (SPME-GC/MS). To be noted: DAP/PCDS diffuser, 40 mL, 6 capillaries. On the procedure:
Three diffusers, each containing 40 mL of solution and 6 capillaries, were prepared and diffused. The first points were measured at T=1d, T=2, and T=3d, then every Monday, Wednesday and Friday of each study week until the diffusers no longer contained any solution. To measure the pheromone released into the air at each study time, the diffuser is first weighed (with the sticks) to measure mass loss, then placed in an enclosed area (in this case, an upside-down aquarium) containing a SPME fiber, as shown in FIG. 24.
The fiber is left to diffuse above the diffuser for 2 hours (a time determined in a previous method development as the optimum time for molecules to adsorb to the phase), then analyzed using the gas chromatography/mass spectrometry (GC/MS) technique.
Three diffusers were studied for greater accuracy. The chromatograms obtained are reprocessed using GC/MS Solution software.
For each chromatographic peak, the area is recorded using GC/MS Solution software, then entered into an Excel spreadsheet. Diffusion curves giving the area of the chromatographic peak corresponding to each active ingredient as a function of time are then plotted.
Analyses were carried out by gas chromatography/mass spectrometry (GC/MS). The instrument was a Shimadzu GCMS QP2010SE® equipped with an AOC 6000® autosampler. Separation was carried out on a ZB-FFAP® column (30 m×0.25 mm×0.25 μm, stationary phase: nitroterephthalic acid-modified polyethylene glycol) supplied by Phenomenex. The furnace temperature was initially set at 80° C. for 1 minute, then increased at 10° C./min to 240° C. and maintained at this temperature for 2 minutes. The carrier gas was helium at a flow rate of 1 mL/min. Analysis time is 19 minutes.
The injector is a split/splitless injector used in split mode (temperature: 250° C., split: 50:1). The SPME fiber was injected directly into the injector and left to desorb for 15 minutes.
The separated molecules were detected using a mass spectrometer equipped with an electron impact source (temperature: 200° C.). The analyzer is a simple quadrupole. The interface temperature is 250° C. Data were acquired in FASST mode (Fast automated SCAN/SIM type), i.e. part of the analysis was performed by scanning all ions (SCAN) and part by selecting specific ions (SIM). Target molecules were thus analyzed using ion selection.

Data set [5] is described as follows: Ratios of molecules diffused through the sticks over time. How it is done:
Furthermore, as small molecules diffuse more, it happens that they lose intensity over the course of the study, so the ratios are different 24 hours after immersing the sticks in the liquid and 21 days later. Here are the ratios for each pheromone studied at the start of the study and at the end.

Setting [6] is: DAP, 24 h after immersion of sticks.
[7] abbreviates: DAP, 21 days after immersion of sticks (empty tank).
The mark [8] stands for this setting: Despecified pheromone (Core), 5 days after immersion of the sticks.
The mark [9] stands for this setting: Despecified pheromone (Core), 21 days after immersion of sticks (empty tank).
The mark [10] stands for this setting: F3, 24 h after immersion of sticks.
Where [11] appears, read: F3, 21 days after immersion of sticks (empty tank).
[12] abbreviates: F3P, 24 h after immersion of the sticks.
The mark [13] stands for this setting: F3P, 21 days after immersion of sticks (empty tank).

For `CCCCCCCC/C=C\CCCCCCCC(=O)OC` [methyl oleate, methyl (Z)-octadec-9-enoate], the “% of the active ingredient in the pheromone” value was found to be 30.4% in data set [1] (day 0); 30.6% in data set [1] (day 7); 30.6% in data set [1] (day 14); 30.7% in data set [1] (day 21); 30.7% in data set [1] (day 28). Further, the “direct diffusion from the diffuser block” value in data set [2] is given as “lowest intensity”. Besides, the “direct diffusion over time” value was “increased over time” in data set [3] and “slight increase over time” in data set [4]. For the same molecule, the “ratio of molecules diffused through the sticks” value (“ratio” below) is given as 2 % (w/w) in data set [5] (setting [6]); 3.5 % (w/w) in data set [5] (setting [7]); 3 % (w/w) in data set [5] (setting [8]); 4 % (w/w) in data set [5] (setting [9]); 2 % (w/w) in data set [5] (setting [10]); 4 % (w/w) in data set [5] (setting [11]). The “ratio” value is on record as 0.6 % (w/w) in data set [5] (setting [12]) and 2 % (w/w) in data set [5] (setting [13]).
As for `CCCCCCCCCCCCCCCC(=O)OC` [methyl palmitate, methyl hexadecanoate], the “% of the active ingredient in the pheromone” value was determined as 27.2% in data set [1] (day 0); 27.2% in data set [1] (day 7); 27.1% in data set [1] (day 14); 27.1% in data set [1] (day 21); 27.1% in data set [1] (day 28). Also, the “direct diffusion from the diffuser block” value in data set [2] is given as “diffuse better”. In addition, the entries for the “direct diffusion over time” value in data set [3] and in data set [4] were “increased over time” and “slight increase over time”, respectively. In addition, the “ratio” value in data set [5] (setting [6]) was 9.5 % (w/w); in data set [5] (setting [7]), 12 % (w/w); in data set [5] (setting [8]) it was 19 % (w/w); in data set [5] (setting [9]), 22 % (w/w); in data set [5] (setting [10]) it was 3 % (w/w); in data set [5] (setting [11]) it was 5 % (w/w). Besides, the “ratio” value is listed as 1 % (w/w) in data set [5] (setting [12]) and 3.4 % (w/w) in data set [5] (setting [13]).

The values above are taken from patent US20250248393A1, “METHOD OF RELEASING A SEMIOCHEMICAL IN THE ENVIRONEMENT BY PASSIVE DIFFUSION, SYSTEM AND MEANS, ESPECIALLY STICKS, TO THIS END, AND USES THEREOF” (SIGNS, priority 2024, published 2025).
